Data taken from patent US9000044B2, “Substituted naphthylacetic acids” (Hoffmann-La Roche Inc., priority 2012, dated 2015).

Legend:
human CRTH2 [1] = biological target: T1, human CRTH2 (Homo sapiens (Human), UniProt Q9Y5Y4); assay: Human CRTH2 Receptor Binding Assay (whole cell, [3H]ramatroban); conditions: CHO-K1 cells expressing human CRTH2 and G-alpha16; 20 nM [3H]ramatroban; 1 hour, room temperature
Excerpt: Human CRTH2 Receptor Binding Assay
A whole cell receptor binding assay using [^3H]ramatroban as the competing radioactive ligand was employed to evaluate the compound binding activity to human CRTH2. The radioactive ligand [^3H]ramatroban was synthesized according to Sugimoto et. al. (Eur. J. Pharmacol. 524, 30-37, 2005) to a specific activity of 42 Ci/mmol.
A cell line stably expressing human CRTH2 was established by transfecting CHO-K1 cells with two mammalian expression vectors that harbored human CRTH2 and G-alpha16 cDNAs, respectively, using FuGene® 6 transfection reagent (from Roche). Stable clones expressing CRTH2 were selected by staining each clone with BM16 (BD Pharmingen™ from BD Biosciences, a division of Becton, Dickinson and Company), which is a rat monoclonal antibody to human CRTH2. The cells were maintained as monolayer cultures in Ham's F-12 medium containing 10% fetal bovine serum, 100 units/mL penicillin, 100 μg/mL streptomycin, 2 mM glutamine, 0.5 mg/mL G418 (geneticin) for CRTH2, and 0.2 mg/mL hygromycin-B (for G-alpha 16). For whole cell receptor binding assay, the monolayer cells were rinsed once with PBS (phosphate buffered saline), dissociated using ethylenediaminetetraacetate (Versene™ EDTA from Lonza Inc.), and suspended in PBS containing 10 mM MgCl2 and 0.06% BSA (bovine serum albumin) at 1.5×10^6 cells/mL.
The binding reactions (0.2 mL) were performed in 96-well plates at room temperature in PBS containing 1.5×10^5 cells, 10 mM MgCl2, 0.06% BSA, 20 nM [^3H]ramatroban, and test compound at various concentrations. After 1 hour of binding reactions, the cells were harvested on GF™/B filter microplates (microtiter plates with embedded glass fiber from PerkinElmer, Inc.) and washed 5 times with PBS using a Filtermate™ Harvester (a cell harvester that harvests and washes cells from microplates from PerkinElmer, Inc.). The radioactivities bound to the cells were determined using a microplate scintillation counter (TopCount® NXT, from PerkinElmer, Inc.) after adding 50 μL of Microscint™ 20 scintillation fluid (from PerkinElmer, Inc.) to each well of the filter plates. The radioactivity from non-specific binding was determined by replacing compound with 10 μM of 15(R)-15-methyl PGD2 (from Cayman Chemical Company) in the reaction mixtures. The radioactivity bound to the cells in the absence of compound (total binding) was determined by replacing compound with 0.25% of DMSO (dimethyl sulfoxide) in the reaction mixture. Specific binding data were obtained by subtracting the radioactivity of non-specific binding from each binding data.
The IC50 value is defined as the concentration of the tested compound that is required for 50% inhibition of total specific binding. In order to calculate the IC50 value, the percent inhibition data were determined for 7 concentrations for each compound. The percent inhibition for a compound at each concentration was calculated according to the following formula, [1-(specific binding in the presence of compound)/(total specific binding)]×100. The IC50 value was then obtained by fitting the percent inhibition data to a sigmoidal dose-response (4 parameter logistic) model in the XLfit® software Excel add-in program [from ID Business Solutions Ltd., model 205, where F(x)=(A+(B−A)/(1+((C/x)^D)))].

human CRTH2 [2] = biological target: T1, human CRTH2; assay: Calcium Flux Assay Using Fluorometric Imaging Plate Reader (FLIPR); type: cell-based; conditions: CHO-K1 cells with G-alpha 16 and human CRTH2; inhibition of DK-PGD2 ligand-induced Ca2+ flux
Method: Calcium Flux Assay Using Fluorometric Imaging Plate Reader (FLIPR)
Cell Culture Conditions: CHO-K1 cells previously transfected with G-alpha 16 were subsequently transfected with the human CRTH2 receptor and the neomycin resistance gene. Following selection in 800 μg/mL G418 (geneticin), individual clones were assayed for their receptor expression based on staining with an anti human CRTH2 IgG, followed by assaying for their response to 13,14-dihydro-15-keto Prostaglandin D2 (DK-PDG2) (ligand) in the Ca^2+ Flux assay. Positive clones were then cloned by limiting dilution cloning. The transfected cells were cultured in Ham's F-12 medium supplemented with 10% fetal bovine serum, 2 mM glutamine, 100 U/mL penicillin/100 μg/mL streptomycin, 200 μg/mL hygromycin B, and 800 μg/mL G418 (geneticin). Cells were harvested with trypsin-EDTA (trypsin-ethylenediaminetetraacetic acid) and counted using ViaCount® reagent (from Guava Technologies, Inc. which contains two DNA-binding dyes that enable the reagent user to distinguish between viable and non-viable cells). The cell suspension volume was adjusted to 2.5×10^5 cells/mL with complete growth media. Aliquots of 50 μL were dispensed into BD Falcon™ 384 well black/clear microplates (from BD Biosciences, a division of Becton, Dickinson and Company) and the microplates were placed in a 37° C. CO2 incubator overnight. The following day, the microplates were used in the assay.
Loading Buffer containing dye (from the FLIPR® Calcium 3 Assay Kit from Molecular Devices, a division of MDS Analytical Technologies and MDS Inc.) was prepared by dissolving the contents of one bottle into 200 mL Hank's Balanced Salt Solution containing 20 mM HEPES (4-(2-hydroxyethyl)-1-piperazineethanesulfonic acid) and 2.5 mM probenecid. Growth media was removed from the cell plates and 25 μL of Hank's Balanced Salt Solution (HBSS) containing 20 mM HEPES, 0.05% BSA and 2.5 mM probenecid was added to each well followed by 25 μL of diluted dye using a Multidrop dispenser. The plates were then incubated for 1 hour at 37° C.
During the incubation, test compound plates were prepared by adding 90 μL of HBSS/20 mM HEPES/0.005% BSA buffer to the 2 μL of serial diluted compounds. To prepare serial diluted compounds, 20 mM stocks of compounds were dissolved in 100% DMSO. The compound dilution plate was set up as follows: well #1 received 5 μL of compound plus 10 μL of DMSO. Wells 2-10 received 10 μL of DMSO. 5 μL was mixed and transferred from well #1 into well #2. 1:3 serial dilutions were continued out 10 steps. 2 μL of diluted compound was transferred into duplicate wells of a 384 well “assay plate” and then 90 μL of buffer was added.
After incubation, both the cell and “assay plate” plates were brought to the fluorometric imaging plate reader (FLIPR®) and 20 μL of the diluted compounds were transferred to the cell plates by the FLIPR®. Plates were then incubated for 1 hour at room temperature. […] During the assay, fluorescence readings were taken simultaneously from all 384 wells of the cell plate every 1.5 seconds. Five readings were taken to establish a stable baseline, then 20 μL of sample was rapidly (30 μL/sec) and simultaneously added to each well of the cell plate. The fluorescence was continuously monitored before, during and after sample addition for a total elapsed time of 100 seconds. Responses (increase in peak fluorescence) in each well following agonist addition were determined. The initial fluorescence reading from each well, prior to ligand stimulation, was used as a zero baseline value for the data from that well. The responses were expressed as % inhibition of the buffer control.

Th2 cells = assay: DK-PGD2-Induced IL-13 Production Assay in Th2 Cells; type: cell-based; conditions: human Th2 cells; 500 nM DK-PGD2; 4 hrs at 37° C.; IL-13 by ELISA
Method: DK-PGD2-Induced IL-13 Production Assay in Th2 Cells
Cultures of Th2 cells were established from blood of healthy human volunteers according to the following procedure. Peripheral blood mononuclear cells (PBMC) were first isolated from 50 mL of fresh blood by Ficoll-Hypaque density gradient centrifugation, followed by CD4^+ cell purification using a CD4^+ T Cell Isolation Kit II (from Miltenyi Biotec Inc.). The CD4^+ T cells were then differentiated to Th2 cells by culturing the cells in X-VIVO 15® medium (from Cambrex BioScience Walkersville Inc.) containing 10% human AB serum (serum of blood type AB from Invitrogen Corporation), 50 U/mL of recombinant human interleukin-2 (rhIL-2) (from PeproTech Inc.) and 100 ng/mL of recombinant human interleukin-4 (rhIL-4) (from PeproTech Inc.) for 7 days. […] In general, 70% to 80% of the Th2 cells used in the assay are CRTH2-positive when analyzed by fluorescence-activated cell sorting using the BM16 antibody (as previously described) conjugated to Alexa Fluor 647.
The spontaneous production of IL-13 by Th2 cells was determined in the absence of DK-PGD2 stimulation and the value was subtracted from that in the presence of each compound for percent inhibition and IC50 calculations. […]

T1 sequence (Q9Y5Y4 whole entry): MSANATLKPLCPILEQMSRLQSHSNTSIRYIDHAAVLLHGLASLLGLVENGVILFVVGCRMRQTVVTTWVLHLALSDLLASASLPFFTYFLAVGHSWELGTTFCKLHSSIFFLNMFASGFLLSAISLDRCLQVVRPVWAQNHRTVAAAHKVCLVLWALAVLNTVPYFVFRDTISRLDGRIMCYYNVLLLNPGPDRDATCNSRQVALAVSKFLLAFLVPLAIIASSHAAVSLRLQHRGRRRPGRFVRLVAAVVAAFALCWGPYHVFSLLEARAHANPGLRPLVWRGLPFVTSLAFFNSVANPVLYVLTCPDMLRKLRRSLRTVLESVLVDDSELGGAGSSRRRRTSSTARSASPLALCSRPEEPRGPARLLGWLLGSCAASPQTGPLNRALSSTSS

Row | Structure (SMILES) | IC50 (human CRTH2 [1]) | IC50 (human CRTH2 [2]) | IC50 (Th2 cells)
1 | Cc1ccccc1S(=O)(=O)c1ccc(-c2c(C)c(CC(=O)O)cc3ccc(F)cc23)cc1 [Example 1, {6-Fluoro-3-methyl-4-[4-(toluene-2-sulfonyl)-phenyl]-naphthalen-2-yl}-acetic acid] | 2.9 nM | 0.3 nM | –
2 | Cc1c(CC(=O)O)cc2ccc(Cl)cc2c1-c1ccc(S(=O)(=O)N2CCCC2)cc1 [Example 33, {6-Chloro-3-methyl-4-[4-(pyrrolidine-1-sulfonyl)-phenyl]-naphthalen-2-yl}-acetic acid] | – | 0.8 nM | 8 nM
3 | Cc1c(CC(=O)O)cc2ccc(F)cc2c1-c1ccc(S(C)(=O)=O)cc1 [Example 54, [6-Fluoro-4-(4-methansulfonyl-phenyl)-3-methyl-naphthalen-2-yl]-acetic acid] | 40 nM | 25 nM | –
4 | Cc1c(CC(=O)O)cc2ccc(Cl)cc2c1-c1ccc(S(=O)(=O)N2CCOCC2)cc1 [Example 55, {6-Chloro-3-methyl-4-[4-(morpholino-4-sulfonyl)-phenyl]-naphthalen-2-yl}-acetic acid] | 2.4 nM | – | –
5 | Cc1c(CC(=O)O)cc2ccc(F)cc2c1-c1ccc(S(C)(=O)=O)cn1 [Example 58, [6-Fluoro-4-(5-methanesulfonyl-pyridin-2-yl)-3-methyl-naphthalen-2-yl]-acetic acid] | 139 nM | 1120 nM | –
6 | Cc1c(CC(=O)O)cc2ccc(F)cc2c1-c1ccc(NS(=O)(=O)c2ccccc2)cc1 [Example 59, [4-(4-Benzenesulfonylamino-phenyl)-6-fluoro-3-methyl-naphthalen-2-yl]-acetic acid] | 3.2 nM | – | –
7 | Cc1c(CC(=O)O)cc2ccc(F)cc2c1-c1ccc(NS(=O)(=O)c2cc(C(F)(F)F)cc(C(F)(F)F)c2)cc1 [Example 60, {4-[4-(3,5-Bis-trifluoromethyl-benzenesulfonylamino)-phenyl]-6-fluoro-3-methyl-naphthalen-2-yl}-acetic acid] | 5.6 nM | 0.1 nM | –
8 | Cc1c(CC(=O)O)cc2ccc(Cl)cc2c1-c1ccc(NS(=O)(=O)c2ccccc2)cc1 [Example 61, [4-(4-Benzenesulfonylamino-phenyl)-6-chloro-3-methyl-naphthalen-2-yl]-acetic acid] | 3.7 nM | – | –
9 | Cc1c(CC(=O)O)cc2ccc(Cl)cc2c1-c1ccc(NS(=O)(=O)c2ccccc2C(F)(F)F)cc1 [Example 62, {6-Chloro-3-methyl-4-[4-(2-trifluoromethyl-benzenesulfonylamino)-phenyl]-naphthalen-2-yl}-acetic acid] | 8.9 nM | – | –
10 | Cc1ccccc1S(=O)(=O)Nc1ccc(-c2c(C)c(CC(=O)O)cc3ccc(Cl)cc23)cc1 [Example 63, {6-Chloro-3-methyl-4-[4-(toluene-2-sulfonylamino)-phenyl]-naphthalen-2-yl}-acetic acid] | 8.3 nM | – | –
11 | CC(=O)Nc1ccc(-c2c(C)c(CC(=O)O)cc3ccc(Cl)cc23)cc1 [Example 64, [4-(4-Acetylamino-phenyl)-6-chloro-3-methyl-naphthalen-2-yl]-acetic acid] | 29.2 nM | – | –
12 | Cc1c(CC(=O)O)cc2ccc(Cl)cc2c1-c1ccc(NC(=O)c2ccccc2)cc1 [Example 65, [4-(4-Benzoylamino-phenyl)-6-chloro-3-methyl-naphthalen-2-yl]-acetic acid] | 6.2 nM | – | –
13 | Cc1c(CC(=O)O)cc2ccc(Cl)cc2c1-c1ccc(NC(=O)Nc2ccccc2)cc1 [Example 66, {6-Chloro-3-methyl-4-[4-(3-phenyl-ureido)-phenyl]-naphthalen-2-yl}-acetic acid] | 19 nM | – | –
